According to US6126918A, “Screening assays to identify therapeutic agents for amyloidosis” (Imperial College Innovations Limited, priority 1993, dated 2000):
Where two headings read alike, the source gives them in different places. One block for each molecule: values may come before it.

Tests used:
[1] = molecular target: T1, SAP (Homo sapiens, UniProt P02743); assay: Binding of DNA by SAP; details: unpublished observations
T1 construct: homopentamer, can form decamer; calcium-dependent ligand site
T1 sequence (P02743 20-223): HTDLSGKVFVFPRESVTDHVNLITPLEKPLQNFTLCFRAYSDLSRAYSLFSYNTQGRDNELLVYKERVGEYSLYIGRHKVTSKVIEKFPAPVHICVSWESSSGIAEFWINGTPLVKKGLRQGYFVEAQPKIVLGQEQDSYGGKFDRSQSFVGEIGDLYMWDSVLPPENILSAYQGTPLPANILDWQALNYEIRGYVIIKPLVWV
Source text: SAP also binds polyanions such as heparan sulphate, dermatan sulphate and DNA [4] in the presence of calcium. […] There are several basic regions in SAP, for example Arg120, Arg77, His78, Lys79 and Arg57, which are on the same surface as the calcium and PE binding sites. It seems more likely that the phosphate backbone of DNA and the sulphated polysaccharides bind both at the calciums and at the basic sites, possibly on more than one subunit simultaneously. These extensive interactions probably account for the ability of SAP to displace from DNA the H1-type histones in chromatin [5]. The sequence differences in the basic regions and in the calcium binding region could explain the variable affinity for DNA shown by different pentraxins. Human CRP, for instance, only binds DNA at low, non-physiological ionic strength. […] Similar effects are observed for SAP binding to immobilised PE [unpublished observations]. As we can find no evidence for a second binding site for PE or MOβDG in the present experimental conditions, these effects must be mediated through inter-subunit interactions.

[2] = molecular target: T2, SAP binding to AA type amyloid fibrils (Homo sapiens, UniProt P02743); assay: Inhibition of SAP binding to amyloid fibrils (125I-SAP); details: concentrations above about 2 mM in the final incubation mixture
T2 construct: isolated at greater than 99% purity from pooled human ascites and pleural effusion fluids; from tissue; host or cells: SAP from pooled human ascites and pleural effusion fluids; fibrils from patients' organs such as spleen
T2 sequence (P02743 20-223): as above
Protocol: Amyloid fibrils are isolated from the organs, such as the spleen, obtained post mortem from patients with amyloidosis of AA or AL type, using the water extraction method of Pras et al. This method is modified in that the initial saline homogenizations are conducted using Tris buffered saline containing 10 mM EDTA to ensure complete dissociation of all endogenous SAP [56]. The fibril-rich water extract is mixed with Tris buffered saline containing calcium chloride to bring the final salt concentration to 138 m NaCl, 10 mM Tris, 2 mM CaCl2, pH 8.0, and this is then centrifuged at 1500 g for 5 minutes to sediment the fibrils. These are then resuspended in Tris saline calcium buffer, pH 8.0, at the same concentration as above (TC buffer), so as to provide a suitable suspension, for example, A280 =0.255, A320 =0.132, and this is stored at 4° C. […] Agents to be tested are dissolved at a concentration of about 10 mM in TC, or in 1:10 DMSO in water or TC. If they are active in inhibiting SAP binding they are tested at a range of lower concentrations to determine the minimal inhibitory dose.
For the assay itself 10 μl of labelled SAP is mixed with 50 μl of amyloid fibril suspension and 40 μl of the test substance and incubated, with mixing, for 60 minutes at room temperature. […] The fibrils are washed with TC containing 1% w/v BSA and the radioactive SAP bound is measured. […]

[3] = tested on: amyloid fibrils of AA, AL and apoAI type; assay: Proteinase digestion of ex vivo amyloid fibrils (AA, AL, apoAI) in vitro; type: biochemical, human; details: for Effect on fibril digestion by proteinases: protein added to incubation mixtures, 37° C.
[4] = tested on: Alzheimer's disease β-protein fibrils; assay: Pronase digestion of Alzheimer's disease β-protein fibrils, SDS-PAGE; type: biochemical; details: for Digestion of β-protein: SAP 10 μg/ml, pronase 1 μg/ml, 1 hour at 37° C.
Protocol: Alzheimer's disease β-protein, prepared as a synthetic peptide containing residues 1-40 was obtained from California Peptide Research, and was dissolved in pure water at 4 mg/ml, that is 1 mM. Some was kept at 4° C. ("fresh") and some was aged by incubation at 37° C. for 7 days. It is known that fibrils form very slowly in the cold but that "ageing" is associated with marked amyloid fibril formation, and this was confirmed in the present case by Congo red staining and by direct electron microscopy.
(a) β-protein solutions obtained as described above were diluted to 0.2 mg/ml in TC immediately before use. Highly purified human SAP in solution in 138 mM NaCl, 10 mM Tris, pH 8.0 (TN) was diluted in TN to 0.1 mg/ml, 0.5 mg/ml and 2.5 mg/ml Pronase from S. griseus was obtained from Boehringer Mannheim and was freshly prepared at 0.04 and 0.004 mg/ml in TC just before use.
Aliquots, 50 μl, of aged or fresh β-protein were mixed with 20 μl volumes of TN alone or SAP at the different concentrations shown in FIG. 5 and with 5 μl of 10 mM CaCl2, and then incubated with shaking at 37° C. for 1 hour. TC alone or pronase in TC at 0.04 or 0.004 mg/ml were added in a volume of 25 μl and incubation continued for a further 1 hour at 37° C. Digestion was then stopped by addition of an equal volume of reducing SDS-PAGE sample buffer (20 mM Tris pH 8.0, 2 mM EDTA, 5% w/v SDS, 10% w/v 2-mercaptoethanol, 0.05% w/v bromophenol blue, 20% w/v glycerol) and boiling for 10 minutes. These samples were finally analysed in reduced SDS homogeneous 15% PAGE, stained with Brilliant blue R350. The proportion of the β-protein present in each track was estimated by scanning densitometry with reference to the no pronase control which was taken as 100%. The proportion digested was calculated by subtraction and plotted against the SAP concentration.
(d) Abrogation of protection by MOβDG: β-protein fibrils at 100 μg/ml were incubated for 1 hour at 37° C. with pronase at 1 μg/ml, in the presence or absence of SAP and with or without different concentrations of MOβDG. The extent of digestion of the β-protein was then estimated by SDS-PAGE analysis.

[5] = tested on: AA amyloid fibrils; assay: Trypsin or chymotrypsin digestion of AA amyloid fibrils, SDS-PAGE quantification of AA protein band; type: biochemical, human; details: 6 hours at 37° C.
Protocol: (b) AA amyloid fibrils obtained ex vivo were incubated for 6 hours at 37° C. with trypsin or chymotrypsin at a substrate:enzyme ratio of 10:1 in the presence or absence of SAP and with or without MOβDG, according to the general protocol given above. The incubation mixtures were then analysed by Coomassie blue stained SDS-PAGE with quantification of the AA protein band. Intensity of this band after incubation without trypsin was taken as 100%.

[6] = molecular target: T1, SAP; details: neutral solutions in the presence of calcium ions; reference [44]; cited from earlier work
[7] = molecular target: T1, SAP; assay: Calcium-dependent aggregation of SAP in neutral solution; details: neutral solutions in the presence of calcium ions; unpublished observations
Source text: SAP rapidly aggregates in neutral solutions in the presence of calcium ions presumably due to intermolecular interactions involving the surface of the decamer with the exposed calcium binding site. […] Similarly they compete for the calcium site with Glu167 which is an important lattice contact in the pentamer crystals.

Effect on SAP binding to amyloid fibrils [2]: reduces binding to background levels
Protective effect of SAP when MOβDG was included ([3]; MOβDG included in the incubation mixtures with SAP): completely abrogated
Digestion of β-protein ([4]; MOβDG 1.3 mM): 75%
Digestion of β-protein ([4]; MOβDG 6.7 mM): 85%
Digestion of β-protein ([4]; MOβDG 33.3 mM): 90%
Protection by SAP in the presence of MOβDG ([4]; β-protein amyloid fibrils with SAP): completely abrogated
Molecule: CO[C@@H]1O[C@@H]2CO[C@@](C)(C(=O)O)O[C@@H]2[C@H](O)[C@H]1O [MOβDG, methyl 4,6-O-(1-carboxyethylidene)-β-D-galactopyranoside]
Effect on binding of DNA by SAP [1]: enhance the binding of DNA by SAP and compete with the interaction at high concentration
% AA protein remaining ([5]; Chymotrypsin, SAP 50 μg/ml plus MOβDG 1 mM): 10%
% AA protein remaining ([5]; Trypsin, SAP 50 μg/ml plus MOβDG 1 mM): 5%
Inhibition of SAP aggregation [6]: can be inhibited

Molecule: NCCOP(=O)(O)O [PE, phosphoethanolamine]
Effect on binding of DNA by SAP [1]: enhance the binding of DNA by SAP and compete with the interaction at high concentration
Inhibition of SAP aggregation [7]: can be inhibited

Molecule: CRP: C-reactive protein, control protein that does not bind to amyloid fibrils
Effect on fibril digestion by proteinases [3]: had no effect on their digestion

Digestion of β-protein ([4]; MOβDG 0 mM): 60%
Molecule: SAP: Serum amyloid P component, a normal human plasma protein; highly purified human SAP
Effect on fibril digestion by proteinases [3]: greatly reduced fibril digestion
Protection of β-protein amyloid fibrils from proteolysis ([4]; fibrils produced in vitro from synthetic β-protein): protected the β-protein amyloid fibrils from proteolysis
% AA protein remaining ([5]; Chymotrypsin, SAP 10 μg/ml, no MOβDG): 20%
% AA protein remaining ([5]; Chymotrypsin, SAP 50 μg/ml, no MOβDG): 60%
% AA protein remaining ([5]; Trypsin, SAP 10 μg/ml, no MOβDG): 20%
% AA protein remaining ([5]; Trypsin, SAP 50 μg/ml, no MOβDG): 50%
